Data on eight compounds can be found in PubChem BioAssay (NCI).

Among the test systems are A549 NSCLC; MDA-MB-435; OVCAR-3 ovarian; T-47D breast; UO-31 renal; HCT-15 colon; SN12C renal; NCI-H460 lung; SK-OV-3 ovarian; SNB-75 CNS.
What all share (test): NCI-60 cell line screen, 48 h

Each structure is given as a SMILES string.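 Step 1: Grow cells in 96-well plates. Step 2: Expose to compound for 48 hours at 5 concentrations. Step 3: Interpolate endpoints linearly; if unreached, use highest concentration. GI50 marks 50% less growth. Definition used: TGI = concentration required for complete inhibition of growth.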

On to `CN1CCC(=C(c2ccc(Cl)cc2)c2ccccn2)CC1`, for which the GI50 in the assay on A549 NSCLC was more than 100 µM; with MDA-MB-435, 40.7 µM; with OVCAR-3 ovarian, more than 100 µM; in the assay with T-47D breast it was more than 100 µM; in the assay on UO-31 renal, 18.5 µM; with HCT-15 colon, more than 100 µM. The GI50 with SN12C renal was more than 100 µM; in the assay on NCI-H460 lung, more than 100 µM; in the assay with SK-OV-3 ovarian, 61.9 µM; in the assay on SNB-75 CNS, 31 µM. Besides, the TGI with A549 NSCLC, in the assay with MDA-MB-435, with OVCAR-3 ovarian, in the assay on T-47D breast, in the assay with UO-31 renal and with HCT-15 colon was more than 100 µM in each case. Further, the TGI with SN12C renal, with NCI-H460 lung, with SK-OV-3 ovarian and in the assay on SNB-75 CNS was more than 100 µM each time.
As for `Cn1cc(Nc2nccc(-c3ccc4c(c3)CN(C3COC3)CC[C@H]4NC(=O)c3cn(C(C)(C)C)nn3)n2)cn1`, the GI50 is 86.8 µM with A549 NSCLC; 42.3 µM in the assay with MDA-MB-435; more than 100 µM in the assay with OVCAR-3 ovarian; 47.9 µM with T-47D breast; 53.1 µM with UO-31 renal; more than 100 µM in the assay on HCT-15 colon. The GI50 is 75.3 µM in the assay with SN12C renal, 85.9 µM in the assay on NCI-H460 lung, 62.5 µM in the assay on SK-OV-3 ovarian and 24.4 µM with SNB-75 CNS. Moreover, the TGI in the assay on A549 NSCLC, in the assay on MDA-MB-435, in the assay on OVCAR-3 ovarian, in the assay on T-47D breast, in the assay with UO-31 renal and with HCT-15 colon was more than 100 µM each time. The TGI in the assay on SN12C renal, in the assay on NCI-H460 lung, in the assay with SK-OV-3 ovarian and with SNB-75 CNS was more than 100 µM each time.
As to `COc1cc(C(=O)/C=C/c2cccnc2Nc2ccc(Cl)cc2)cc(OC)c1OC`, the GI50 in the assay on A549 NSCLC is 1.63 µM; with MDA-MB-435 it was 1.49 µM; in the assay on OVCAR-3 ovarian it was 1.31 µM; in the assay with T-47D breast it was 1.42 µM; with UO-31 renal it was 1.32 µM; in the assay on HCT-15 colon, 1.49 µM. The GI50 in the assay on SN12C renal is 1.46 µM; in the assay with NCI-H460 lung it was 1.92 µM; in the assay on SK-OV-3 ovarian it was 1.72 µM; in the assay with SNB-75 CNS it was 1.63 µM. For the same compound, the TGI was 3.6 µM with A549 NSCLC; 3.36 µM in the assay on MDA-MB-435; 2.62 µM in the assay with OVCAR-3 ovarian; 3.24 µM in the assay on T-47D breast; 2.7 µM in the assay with UO-31 renal; 3.48 µM with HCT-15 colon. Also, the TGI in the assay on SN12C renal came to 2.86 µM; in the assay with NCI-H460 lung it was 3.88 µM; with SK-OV-3 ovarian it was 3.29 µM; in the assay on SNB-75 CNS, 3 µM.
`Cc1ncnc2c1ccn2[C@@H]1C[C@H](Oc2cc(C(F)F)c(F)c3c2CNCC3)[C@@H](O)[C@H]1O`: the GI50 with A549 NSCLC, in the assay on MDA-MB-435, in the assay on OVCAR-3 ovarian, in the assay with T-47D breast, with UO-31 renal and in the assay on HCT-15 colon was more than 100 µM throughout. The GI50 in the assay with SN12C renal, in the assay on NCI-H460 lung, in the assay with SK-OV-3 ovarian and in the assay with SNB-75 CNS was more than 100 µM each time. The TGI with A549 NSCLC, with MDA-MB-435, in the assay with OVCAR-3 ovarian, with T-47D breast, in the assay on UO-31 renal and in the assay with HCT-15 colon was more than 100 µM each time. Also, the TGI in the assay with SN12C renal, in the assay on NCI-H460 lung, in the assay on SK-OV-3 ovarian and with SNB-75 CNS was more than 100 µM throughout.
For `CCOC(=O)C(Cc1ccccc1)n1c(O)c(/C=N/c2ncc(Cc3ccc(Cl)cc3Cl)s2)sc1=S` (stereo not given), the GI50 with A549 NSCLC is 3.68 µM; in the assay on MDA-MB-435, 3.38 µM; in the assay on OVCAR-3 ovarian it was 2.84 µM; in the assay with T-47D breast, 2.16 µM; in the assay with UO-31 renal, 1.97 µM; with HCT-15 colon it was 0.548 µM. The GI50 is 1.59 µM with SN12C renal, 2.09 µM in the assay on NCI-H460 lung, 2.38 µM in the assay with SK-OV-3 ovarian and 2.81 µM in the assay on SNB-75 CNS. In addition, the TGI was more than 100 µM with A549 NSCLC; more than 100 µM with MDA-MB-435; 9.96 µM in the assay with OVCAR-3 ovarian; 8.73 µM in the assay on T-47D breast; 5.31 µM in the assay with UO-31 renal; more than 100 µM in the assay with HCT-15 colon. Besides, the TGI is more than 100 µM in the assay with SN12C renal, 12.4 µM in the assay on NCI-H460 lung, 11.8 µM in the assay on SK-OV-3 ovarian and 21.4 µM in the assay on SNB-75 CNS.
For `CC(C)(Oc1cccc(N2CCC[C@@H](C(=O)N(Cc3ccc(-c4cn[nH]c4)cc3)C3CC3)C2)c1)C(=O)N1CCNCC1`, the GI50 in the assay on A549 NSCLC was 14.1 µM; with MDA-MB-435 it was 13.8 µM; in the assay with OVCAR-3 ovarian, 12.4 µM; in the assay with T-47D breast it was 12.6 µM; in the assay with UO-31 renal, 12.1 µM; with HCT-15 colon, 14.6 µM. The GI50 is 12.1 µM in the assay with SN12C renal, 12.3 µM in the assay with NCI-H460 lung, 16.9 µM with SK-OV-3 ovarian and 1.56 µM in the assay on SNB-75 CNS. The TGI in the assay on A549 NSCLC was 32.2 µM; with MDA-MB-435, 27.2 µM; with OVCAR-3 ovarian, 26 µM; in the assay on T-47D breast, 34.3 µM; with UO-31 renal, 26.8 µM; in the assay on HCT-15 colon, 28.9 µM. Further, the TGI in the assay on SN12C renal was 25.3 µM; with NCI-H460 lung it was 27.2 µM; in the assay with SK-OV-3 ovarian it was 33.6 µM; in the assay on SNB-75 CNS, 18.3 µM.
As for `N#Cc1ncc(-c2ccc(C(F)(F)F)cc2)c(NC2CCCCCC2)n1`, the GI50 in the assay on A549 NSCLC is 47.4 µM; in the assay on MDA-MB-435, 29.1 µM; in the assay with OVCAR-3 ovarian it was 14.9 µM; with T-47D breast, 6 µM; in the assay on UO-31 renal, 12 µM; in the assay with HCT-15 colon it was 8.53 µM. For the same compound, the GI50 with SN12C renal is 34.8 µM; in the assay on NCI-H460 lung, 11.1 µM; in the assay on SK-OV-3 ovarian it was more than 100 µM; with SNB-75 CNS, more than 100 µM. In addition, the TGI with A549 NSCLC, with MDA-MB-435, in the assay with OVCAR-3 ovarian, in the assay with T-47D breast, in the assay with UO-31 renal and in the assay on HCT-15 colon was more than 100 µM each time. For the same compound, the TGI with SN12C renal, in the assay on NCI-H460 lung, in the assay on SK-OV-3 ovarian and in the assay on SNB-75 CNS was more than 100 µM in each case.
For `CCc1nc(N)nc(N)c1-c1ccc(N2CCNCC2)c([N+](=O)[O-])c1`, the TGI with A549 NSCLC, in the assay with MDA-MB-435, in the assay with OVCAR-3 ovarian, in the assay with T-47D breast, in the assay with UO-31 renal and in the assay on HCT-15 colon was more than 100 µM throughout. The TGI with SN12C renal was more than 100 µM; with NCI-H460 lung, more than 100 µM; in the assay with SK-OV-3 ovarian, more than 100 µM; in the assay with SNB-75 CNS, more than 95.8 µM.
